Results: patent US20080260858A1, “Universal Procoagulant” (The Board of Trustees of the University of Illnois, priority 2005, published 2008)
Like-named read-outs stand apart in the source and are kept apart here.

Experiments:
pooled normal plasma [1] = experiment: PT clotting assay with modified thromboplastin reagents; type: biochemical, human; conditions: for Concentration of TF that yields a 50 sec. clot time: His-tagged sTF with Ni-NTA-DOGS/PCPSPE (SUV with 10 mol % Ni-NTA-DOGS), rTF with PCPS
Method: Thromboplastin reagents containing TF and phospholipids were prepared and diluted to various concentrations of TF. The diluted thromboplastin reagents were then used in the PT assay (FIG. 4). The four modified thromboplastin reagents were made as follows: 1. 100 ng/ml rTF relipidated in PCPS vesicles (30 μM), 2. […] The thromboplastin reagents were diluted in TA (50 mM Tris-HCl buffer, pH 7.5, 0.1% bovine serum albumin, 0.1% NaN3) to varying concentrations of TF.
(§1) The modified aPTT reagent contained varying concentrations of the indicated metal salts, NTA-lipids (100 μM lipid), 0.08% (w/v) sodium azide, and 16 mM Hepes buffer, pH 7.4.
Thromboplastin reagents—To prepare a conventional thromboplastin reagent, rTF was relipidated into phospholipid vesicles composed of 20 mol % PS, 80 mol % PC (rTF/PCPS) at a 8700:1 molar ratio of phospholipid to rTF as described. rTF/PCPS preparations were then diluted to the desired final rTF concentration in TBSA (50 mM Tris-HCl buffer, pH 7.5, 100 mM NaCl, 0.1% bovine serum albumin, 0.1% NaN3).
(§2) PT clotting assay—PT assays were performed in a model ST4 coagulometer (Diagnostica Stago) by pipetting 50 μl of 25 mM CaCl2 and 50 μl diluted thromboplastin reagent into a coagulometer cuvette and allowing the mixture to warm to 37° C. for 2 min. Clotting was then initiated by pipetting 50 μl pre-warmed, pooled normal plasma into the cuvette and the time to clot formation recorded.

pooled normal plasma [2] = experiment: aPTT clotting assay; type: biochemical, human; conditions: metal ion with NTA-lipids (100 μM lipid)
Method: as §1
aPTT assays were performed with modified aPTT reagents containing varying concentrations of NiSO4, CoCl2, CuSO4, ZnCl2, FeSO4, CdCl2, CrCl2, AgNO3 or MnCl2 in the presence of NTA-lipids (FIG. 12C). […] Co^2+ and Zn^2+ some activity (see FIG. 12C). […] Ni^2+ performed substantially better in this assay than did Cu^2+.
aPTT clotting assay—aPTT clotting assays were also carried out in a model ST4 coagulometer (Diagnostica Stago). The aPTT assays were performed by pipetting 50 μl of an aPTT reagent and 50 μl pooled normal plasma into a coagulometer cuvette and incubating the mixture for 3 min at 37° C. 50 μl prewarmed 25 mM CaCl2 was then pipetted into the cuvette and the time to clot formation was recorded.

VIIa [3] = molecular target: T1, VIIa (Homo sapiens, UniProt P08709); experiment: Kd for VIIa binding to TF (X activation rate as readout)
T1 construct: VIIa or factor VIIa means coagulation factor VIIa (active enzyme); purchased American Diagnostica
T1 sequence (P08709 61-212): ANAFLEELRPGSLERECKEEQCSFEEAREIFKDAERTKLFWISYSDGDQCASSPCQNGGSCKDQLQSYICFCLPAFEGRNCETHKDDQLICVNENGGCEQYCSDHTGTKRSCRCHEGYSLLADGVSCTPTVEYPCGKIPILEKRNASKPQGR
T1 sequence (P08709 213-466): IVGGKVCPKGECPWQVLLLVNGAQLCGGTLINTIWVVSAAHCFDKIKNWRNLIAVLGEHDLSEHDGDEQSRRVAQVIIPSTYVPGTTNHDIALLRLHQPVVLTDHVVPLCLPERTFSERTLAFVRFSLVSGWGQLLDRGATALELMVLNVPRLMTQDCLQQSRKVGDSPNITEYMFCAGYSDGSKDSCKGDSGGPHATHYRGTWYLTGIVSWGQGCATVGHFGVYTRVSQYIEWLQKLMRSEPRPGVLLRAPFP
Method: When VIIa binds to TF, its rate of X activation increases dramatically, so this can be used as a convenient readout for TF:VIIa complex formation. […] Therefore, when the isolated TF ectodomain was attached to the membrane surface via interaction with metal-chelating lipids, its VIIa binding ability was indistinguishable from membTF that spanned the lipid bilayer.
Measurement of the Kd for VIIa binding to TF—The binding affinity of VIIa for various forms of TF was measured using the TF-dependent increase in the rate of X activation as the readout for TF:VIIa complex formation. Activation of X by the TF:VIIa complex was measured by adapting the continuous chromogenic assay of Fiore et al.. Reaction mixtures containing Vila and either rTF/PCPS or sTF+SUVs were prepared in HBSAC. Reactions were initiated by adding a mixture of X and the chromogenic substrate, S-2222, in a flat bottom, 96-well plate. Change in A405 was monitored at ambient temperature in a VERSAmax microplate reader (Molecular Devices), sampling every 15 sec for 20 min. Initial rates of X activation were determined by fitting a second-order polynomial to the A405 data as described. The quadratic ligand binding equation was fit to the rate data as described to derive apparent Kd values for the binding of VIIa to TF. For experiments using relipidated rTF, typical reaction mixtures containing 0.25 μM VIIa and 20 nM X in HBSAC were incubated with increasing concentrations of rTF/PCPS.

VIIa [4] = molecular target: T2, VIIa (Homo sapiens, UniProt P08709); experiment: Allosteric activation of VIIa (chromogenic assay); type: biochemical; conditions: compared to sTF and rTF/PCPS; data not shown
T2 construct: VIIa or factor VIIa means coagulation factor VIIa (active enzyme); purchased American Diagnostica
Method: Measurement of Allosteric Activation of VIIa—The ability of TF to allosterically activate factor VIIa was carried out measuring the enzymatic activity of factor VIIa by a chromogenic assay. […] The reaction was initiated by the addition of the chromogenic substrate, Chromozym® t-PA (ChtPA) in a flat bottom, 96-well plate. […] Change in A405 was monitored at ambient temperature in a VERSAmax microplate reader (Molecular Devices), reading every 30 seconds for 20 minutes.

factor-deficient plasmas = experiment: PT assay with factor-deficient plasmas; type: biochemical, human; conditions: 3 μg/ml sTF(His)6 with 100 μM 15% Ni-lipid, or commercial reagent
Text: A major goal was to create a soluble form of TF that can function as a thromboplastin reagent in the PT assays. […] This reagent was then compared in PT assays to a commercially available thromboplastin reagent, STA-Neoplastine CI Plus (Diagnostica Stago). Clotting times with the two reagents were compared using pooled normal plasma as well as a number of factor-deficient plasmas (FIG. 6). (The latter were deficient in factors V, VII, VIII, IX, X, XI, XII, prekallikrein (PK), or high molecular weight kininogen (HK)).
as §2

[5] = tested on: pooled normal human plasma; experiment: Clotting assay with immobilized lipids; type: biochemical; conditions: 200 nmol dried NiPCPSPE per well; 4800 nM
Method: Mixtures of DOGS-NTA-Ni and phospholipids were dried-down in the wells of a polystyrene coagulometer cuvette, the cuvettes were washed to remove any non-immobilized lipid, and then sTF-5AA-(His)6 was added to the wells. Clotting tests were subsequently conducted by adding calcium ions and plasma to wells. […] Control experiments were conducted using other lipid compositions, which were all dried down onto the cuvette well at a single amount of lipid per well (200 nmol).
Clotting assay with immobilized lipids—Lipid mixtures in chloroform were first dried down in a borosilicate glass test tube under a gentle stream of dry nitrogen gas to remove the solvent, after which the dried lipids were redissolved in n-hexane at a total lipid concentration of 0.3 to 5.3 mM. Complete lipid mixtures were termed NiPCPSPE and consisted of 10% DOGS-NTA-Ni, 12.5% PS, 30% PE, and 47.5% PC. […]
Each well of an ST4 cuvette received 150 μl of lipid solution in hexane (containing 50 to 800 nmol total lipid per well). […] A 50 μl aliquot of 25 mM CaCl2 was added per well and the cuvettes were incubated for 2 min at 37° C., after which a 50 μl aliquot of pre-warmed (37° C.) pooled normal human plasma was added and the time to clot formation was measured.

X activation by VIIa = molecular target: T3, X activation by VIIa (Homo sapiens, UniProt P08709); experiment: Factor X activation using liposomes; type: biochemical; conditions: sTF-5AA-(His)6 with PCPS liposomes, or sTF with NiPCPS liposomes
T3 construct: VIIa or factor VIIa means coagulation factor VIIa (active enzyme); purchased American Diagnostica
Method: A stringent test of TF:VIIa function is its ability to support the activation of its natural protein substrate, X. This requires that TF be incorporated into a suitable phospholipid membrane (i.e., one containing negatively charged phospholipids). […] The ability of various forms of TF to support the activation of X was compared under equivalent concentrations of enzyme (500 pM VIIa), cofactor (4 pM TF) and liposomes (50 μM total lipid).
Factor X activation using liposomes. […] At varying times, 20 μl aliquots were removed into a 96-well plate containing 100 μl Stop Buffer 1 (40 mM Mes-NaOH pH 5.8, 12 mM EDTA, 50 mM NaCl, 0.25% Triton X-100, 0.1% NaN3, 0.012% Antifoam C) at 4° C. After warming the stopped reactions to room temperature, Xa was detected by adding 60 μl of 1.5 mM Spectrozyme Xa in HBSAC plus 0.6 M Tricine-NaOH, pH 8.4 and quantifying change in A405. Amounts of Xa generated were determined by comparison to a standard curve with purified Xa.

VIIa [6] = molecular target: T1, VIIa; conditions: rTF relipidated into PCPS vesicles; literature [4]; read-out: Kd for VIIa binding; cited from earlier work
[7] = ± SEM, sTF and rTF with PCPS, sTF-(His)6 with Ni-NTA-DOGS/PCPSPE (SUV with 15 mol % Ni-NTA-DOGS), read-out: Kd.app for VIIa binding

[Cl-].[Cl-].[Co+2] [Co^2+, CoCl2]
PT clotting time shortened to (pooled normal plasma [1]; metal ion added to modified thromboplastin reagent, NTA-lipids, 30 ng/ml sTF-5AA-(His)6): less than 100 sec | activity in aPTT assay (pooled normal plasma [2]): some activity

O=S(=O)([O-])[O-].[Cu+2] [Cu^2+, CuSO4]
activity in aPTT assay (pooled normal plasma [2]): dramatically shortened the clotting time

O=S(=O)([O-])[O-].[Ni+2] [Ni^2+, NiSO4]
activity in aPTT assay (pooled normal plasma [2]): dramatically shortened the clotting time

[Cl-].[Cl-].[Zn+2] [Zn^2+, ZnCl2]
activity in PT assay (pooled normal plasma [1]; metal ion with NTA-lipids (100 μM lipid), 30 ng/ml sTF-5AA-(His)6): some activity | activity in aPTT assay (pooled normal plasma [2]): some activity

sTF(His)6: oligohistidine-tagged sTF; replaces the final two amino acids of sTF with six histidine residues
procoagulant activity compared with sTF (pooled normal plasma [1]; PT assay, 10% Ni-lipids): dramatically higher than sTF | Concentration of TF that yields a 50 sec. clot time (pooled normal plasma [1]; PT assay): 45 ng/mL | Kd (VIIa [3]; read-out: Kd for VIIa binding to the his-tagged sTF variants, 15% Ni-lipid): 0.169 nM | Kd (VIIa [3]; [7]): 0.169 ± 0.015 nM | ability to allosterically activate VIIa (VIIa [4]): able to fully allosterically activate VIIa | PT clotting times with plasmas deficient in factors V, VII or X (factor-deficient plasmas): prolonged clotting times | PT sensitivity to deficiencies in clotting factors of the intrinsic pathway (factors VIII, IX, XI, XII, PK, or HK) (factor-deficient plasmas): insensitive

sTF: soluble tissue factor, a truncated, soluble form of tissue factor that does not have the membrane-spanning domain nor the cytoplasmic domain [reference compound]
clotting times compared with sTF-5AA-(His)6 [5]: much longer clotting times | Kd (VIIa [3]; sTF, read-out: Kd for VIIa binding): 7 nM | rates of X activation by VIIa, control combinations (X activation by VIIa): negligible rates of X activation

B1: rTF: recombinant, membrane-anchoring tissue factor; rTF/PCPS is rTF relipidated into 20 mol % PS, 80 mol % PC vesicles (protein, UniProt P13726 1-295, looked up)
chain: METPAWPRVPRPETAVARTLLLGWVFAQVAGASGTTNTVAAYNLTWKSTNFKTILEWEPKPVNQVYTVQISTKSGDWKSKCFYTTDTECDLTDEIVKDVKQTYLARVFSYPAGNVESTGSAGEPLYENSPEFTPYLETNLGQPTIQSFEQVGTKVNVTVEDERTLVRRNNTFLSLRDVFGKDLIYTLYYWKSSSSGKKTAKTNTNEFLIDVDKGENYCFSVQAVIPSRTVNRKSTDSPVECMGQEKGEFREIFYIIGAVVFVVIILVIILAISLHKCRKAGVGQSWKENSPLNVS
modifications: full-length relipidated in PS/PC vesicles
notes: recombinant, membrane-anchoring tissue factor; rTF/PCPS is rTF relipidated into 20 mol % PS, 80 mol % PC vesicles
Kd (VIIa [6]): < 0.05 nM | Concentration of TF that yields a 50 sec. clot time (pooled normal plasma [1]; PT assay): 0.7 ng/mL | affinity of VIIa for rTF/PCPS relative to sTF (VIIa [3]): approximately 100 fold | Kd (VIIa [3]; [7]): 0.04 ± 0.005 nM
